{
  "source": "patent US7507718B2",
  "about": "“Polymyxin B analogs for LPS detoxification” (Sanofi Pasteur, priority 2005, dated 2009)",
  "key": {"[1]": {"tested_on": "N. meningitidis strain used for LPS production", "test": "Serum bactericidal activity (SBA) of sera of immunized rabbits", "format": "in vivo", "conditions": "individual rabbits", "description": "Immunization of three adult New-Zealand rabbits is performed with 100 μg of LPS-peptide complex by intramuscular (IM) and subcutaneous (SC) routes (2×0.5 mL and 5×0.2 mL respectively) in the presence of adjuvant. They receive three injections at 3-week interval; the first one with complete Freund adjuvant (FA), the second and third ones with incomplete Freund adjuvant. They are bled two weeks after the last injection. A control group is immunized with the peptide with adjuvant (71 μg, equivalent to the amount of the peptide in 100 μg of LPS-peptide complex) using the same protocol.\nThe bactericidal activity of the serum (SBA) samples is evaluated against the N. meningitidis strain used for LPS production as described in Example 5 in the presence of baby rabbit serum as exogenous source of complement.\nSera are heat-inactivated during 30 min at 56° C. In the wells of a 96-well microplate, heat-inactivated sera are then twofold serially diluted (10 times) in Dulbecco's phosphate buffered saline containing Ca^++ and Mg^++ (volume per well: 50 μl).\nTwenty five μl of a log phase culture of N. meningitidis grown in Mueller-Hinton broth (4.10^3 CFU/mL) and 25 μl of baby rabbit serum are added to each well. The plate is incubated one hour at 37° C., under shaking.\nFifty μl of the mixture from each well are plated onto Mueller-Hinton agar. Petri dishes are incubated overnight at +37° C. in a 10% CO2 atmosphere.\nIn each experiment, controls include (i) bacteria and the complement source without antibodies (complement control), (ii) bacteria and heat-inactivated complement, and (iii) bacteria and heat-inactivated complement, in the presence of antibodies.\nBactericidal titre is reported as the highest reciprocal serum dilution at which ≧50% killing of bacteria is observed as compared to the complement control."}, "TNFα release": {"tested_on": "TNFα release", "test": "In vivo cytokine release in sera of CD1 mice (ELISA): TNFα", "parameters": "species or system mouse", "description": "(§1) In order to evaluate to which extent the LPS-peptide complex can attenuate LPS-induced toxic effects, the effect of the LPS-peptide complex on the release of pro-inflammatory cytokines is monitored (assessed) in in vitro and in vivo assays. • In vivo: cytokine (IL6 and TNFα) releases in the sera of mice immunized either with LPS or LPS-peptide complex are compared by ELISA. Blood samples are recovered 90 min after SC immunization, which is the optimal time for the release of those cytokines. C3H/HeOuJ, TLR4-/-, C3H/HeN and CD1 mouse strains are tested. The two first are sensitive neither to LPS nor LPS-peptide complex. The third and fourth are both found LPS-sensitive. CD1 mice are found more LPS-peptide complex-sensitive than the others and therefore selected for further experiments retaining the most severe conditions. • In vitro:cytokine (IL6, IL8 and TNFα) releases from human whole blood cell cultures stimulated for 24h at 37° C., with different concentrations of LPS or LPS-peptide complex are compared. 5.4.1. In Vivo Assay\n(§2) CD1 mice are administered subcutaneously (SC) (i) either 10 μg of LPS or (ii) 10 μg of LPS-peptide complex. They are bled 90 minutes after injection. IL6 and TNFα releases are measured in the sera by ELISA. […]\n(§3) The reaction is stopped by adding 100 μl of 1 M H3PO4 per well. Plates are read at 450 nm."}, "IL6 release": {"tested_on": "IL6 release", "test": "In vivo cytokine release in sera of CD1 mice (ELISA): IL6", "parameters": "species or system mouse", "description": "as §1, §2, §3"}, "[2]": {"conditions": "10 μg SC, sera 90 minutes after injection"}},
  "note": "Where “and” joins values, the source holds several entries; their conditions need not be identical. Identical values can stand only once. Bridge positions count the residues as written; N and C are the ends. Peptide text beside a SMILES is read from it. I, II: the chains in the order shown.",
  "data": [
    {"smiles": "CC(C)C[C@@H]1NC(=O)[C@H](CC(C)C)NC(=O)[C@H](CC(C)C)NC(=O)[C@H](Cc2ccccc2)NC(=O)[C@H](CCCCN)NC(=O)[C@@H](NC(=O)[C@H](CCCCN)NC(=O)[C@@H](NC(=O)[C@@H](N)CCCCN)[C@@H](C)O)CSSC[C@@H](C(=O)O)NC(=O)[C@H](CC(C)C)NC(=O)[C@H](CC(C)C)NC(=O)[C@H](CC(C)C)NC(=O)[C@H](Cc2ccccc2)NC(=O)[C@H](CCCCN)NC(=O)[C@@H](NC(=O)[C@H](CCCCN)NC(=O)[C@@H](NC(=O)[C@@H](N)CCCCN)[C@@H](C)O)CSSC[C@@H](C(=O)O)NC1=O", "note": "[Peptide, NH2-Lys-Thr-Lys-Cys1-Lys-Phe-Leu-Leu-Leu-Cys2-COOH] (I: H-KTKCKFLLLC-OH / II: H-KTKCKFLLLC-OH; disulfide I:4-II:10, I:10-II:4)", "values": [
      {"measurement": "SBA titre, Pre-immunized sera", "setting": "[1]; baseline before immunization, baby rabbit complement", "value": "4 and 16"},
      {"measurement": "SBA titre, Post-dose 3 immunized sera", "setting": "[1]; 100 μg complex or 71 μg peptide IM+SC with Freund adjuvant, three injections", "value": 16},
      {"measurement": "SBA titre, Post-dose 3 immunized sera adsorbed on LPS", "setting": "[1]; sera adsorbed on LPS", "value": "4 and 8"},
      {"measurement": "TNFα release, Mean (pg/mL) n = 6 (log)", "setting": "TNFα release; [2]", "value": "<1 pg/mL (log)"},
      {"measurement": "Induction of TNFα (in words)", "setting": "TNFα release; peptide alone", "value": "does not induce"},
      {"measurement": "IL6 release, Mean (pg/mL) n = 6 (log)", "setting": "IL6 release; [2]", "value": "<1 pg/mL (log)"},
      {"measurement": "Induction of IL6 (in words)", "setting": "IL6 release; peptide alone", "value": "does not induce"}
    ]}
  ]
}
